Source: a compilation of properties of binary mixtures (doi:10.1021/acs.jced.0c00495)

Assay: xn = mol fraction of the nth substance listed
Conditions: 101.3 kPa

Nc1ccccc1 + CCCC[n+]1ccn(C)c1.F[B-](F)(F)F
speed of sound [m/s]
Conditions	x2 = 0	x2 = 0.0925	x2 = 0.2022	x2 = 0.2995	x2 = 0.4002	x2 = 0.4982	x2 = 0.5953	x2 = 0.6935	x2 = 0.7904	x2 = 0.9191
293.15 K	–	1656	–	1645	1634	–	1613	1603	–	1583
298.15 K	1638	–	1636	1630	1619	–	1600	1590	1581	1571
303.15 K	–	1623	1619	1614	1604	1595	1587	–	–	–
308.15 K	1599	1606	1603	–	1590	–	1573	1565	1557	1548
313.15 K	–	1588	1587	1582	–	1568	1560	1553	1546	1537
318.15 K	1561	1570	1571	1566	1561	–	1548	–	1534	1526
323.15 K	–	1553	1555	–	–	1541	–	1529	1523	1516

CCCCCC[n+]1ccn(C)c1.F[B-](F)(F)F + Nc1ccccc1
speed of sound [m/s]
Conditions	x1 = 0.0989	x1 = 0.1792	x1 = 0.2896	x1 = 0.3924	x1 = 0.5062	x1 = 0.6042	x1 = 0.6986	x1 = 0.7974	x1 = 0.8962
293.15 K	1653	–	1618	1598	1579	1565	–	–	1539
298.15 K	1636	1623	1603	1583	–	–	1541	1532	1526
303.15 K	–	1606	1586	1568	1550	1537	–	1520	1513
308.15 K	1601	1589	1571	1553	1536	1524	1515	1507	1501
313.15 K	–	1572	1555	1539	1522	1510	1502	1494	1489
318.15 K	1565	1556	1540	1525	1509	–	–	1482	1476
323.15 K	1547	–	1525	–	1496	1485	1477	1470	1464

Nc1ccccc1 + CCCCCCCCn1cc[n+](C)c1.F[B-](F)(F)F
x2 = 0
Conditions	speed of sound [m/s]
293.15 K	1657
298.15 K	1638
303.15 K	1618
308.15 K	1599
318.15 K	1561
323.15 K	1542

CCCCCCCCn1cc[n+](C)c1.F[B-](F)(F)F + Nc1ccccc1
speed of sound [m/s]
Conditions	x1 = 0.0996	x1 = 0.1904	x1 = 0.2853	x1 = 0.3789	x1 = 0.4955	x1 = 0.5783	x1 = 0.6966	x1 = 0.7938	x1 = 0.8958
293.15 K	1640	1619	1595	1574	1553	1540	1526	1516	–
298.15 K	–	–	1580	1560	1539	1526	1512	–	1494
303.15 K	–	–	1564	1545	1525	1513	1499	1488	–
308.15 K	1589	–	1549	1530	1511	–	1485	1476	1467
313.15 K	–	1554	1534	–	1496	1485	1472	1463	1454
318.15 K	1554	1538	1518	–	1483	1472	1459	1450	1441
323.15 K	–	–	1502	1486	1469	1458	1446	–	1429

Nc1ccccc1 + CCCCCC[n+]1ccn(C)c1.F[B-](F)(F)F
x2 = 0
Conditions	speed of sound [m/s]
293.15 K	1657
298.15 K	1638
303.15 K	1618
308.15 K	1599
